According to US5538977A, “3-Substituted-7-[3-(imidazol-1-yl)phenyl]-pyrazolo[1,5-a]pyrimidines” (American Cyanamid Company, priority 1995, dated 1996):

Experiments:
[1] = Protection against clonic seizures caused by pentylenetetrazole in rats; type: in vivo, rat; settings: pentylenetetrazole 23 mg/kg i.v. at 30 or 60 min
Method: The anti-anxiety and anticonvulsant properties of the novel compounds of the present invention have been established in a test which indicates anxiolytic activity by the measure of protection from convulsions resulting from the administration of pentylenetetrazole. Single or graded dose levels of the test compounds were administered orally or intraperitoneally in a 2% starch vehicle, containing 0.5% v/v polyethylene glycol and one drop of Polysorbate 80 to groups of at least 4 rats. At 30 or 60 minutes, the rats were treated intravenously with pentylenetetrazole at a dose of 23 mg/kg of body weight. This dose is estimated to cause clonic seizures in 99% of unprotected rats. It has Been reported [R. T. Hill and D. H. Tedeschi, "Animal Testing and Screening Procedures in Evaluating Psychotropic Drugs" in "An Introduction to Psychopharmacology",Eds. R. R. Rech and K. E. Moore, Raven Press, N.Y., pp 237-288 (1971)]that there is a high degree of correlation between antagonism of pentylenetetrazole seizures in rats and anti-anxiety or anticonvulsant effects in higher warm-blooded animals.

[2] = Nonconditioned passive avoidance (conflict) test in rats; type: in vivo, rat (Wistar strain); settings: 25 mg/kg oral or i.p., 30 to 60 min, active if number of shocks received is significantly higher than control group by Mann-Witney U test
Method: Another test which has been used to assess antianxiety effects is a nonconditioned passive avoidance procedure described by [J. R. Vogel, B. Beer and D. E. Clody, "A Simple and Reliable Conflict Procedure for Testing Anti-Anxiety Agents", Psychopharmacologia, 21, 1-7(1971)]. A conflict situation is induced in rats by a modification of this method.
Groups of 6 naive, Wistar strain rats, weighing 200-240 g each were deprived of water for 48 hours and food for 24 hours. The test compounds were administered in single or graded, oral or intraperitoneal doses, suspended in a 2% starch vehicle containing 0.5% v/v polyethylene glycol and one drop of polysorbate 80. Control animals received the vehicle alone. At 30 to 60 minutes each rat was placed in an individual plexiglass chamber. Water was available ad libitum from a tap located in the rear of the chamber. A 0.7 milliampere DC shocking current was established between the stainless steel grid floor and the tap. After 20 licks of nonshocked drinking, a shock was delivered for 2 seconds and then further shocks were delivered on a ratio of one shock for 2 seconds for every 20 licks. This was continued for a total of 3 minutes. The number of shocks taken by each rat during the 3 minute interval was recorded and compared to a control group. […]

[3] = system: brain-specific receptors of rats (3H-benzodiazepine binding); assay: Inhibition of the binding of 3H-benzodiazepine to brain-specific receptors of rats; design: species or system rat (Wistar strain); settings: rat cortex P2-fraction; 3H-diazepam 1.5 nM or 3H-flunitrazepam 1.0 nM; pH 7.4; 30 min in ice; test concentration not given
[4] = Rattus norvegicus, 25 mg/kg oral or i.p., read-out: % of Rats Protected

Row | Structure (SMILES) | responders at 3.1 mg/kg ([1]; Rattus norvegicus, 3.1 mg/kg oral or i.p., read-out: % of Rats Protected) [%] | Nonconditional Passive Avoidance Test result [2] | % Inhibition [3] [%] | responders at 25 mg/kg [1, 4] [%] | % of Rats Protected (result in words) ([1]; 25 mg/kg oral or i.p.) | % of Rats Protected (result in words) ([1]; 6.25 mg/kg oral or i.p.) | % Inhibition (result in words) [3]
1 | Cc1nccn1-c1cccc(-c2ccnc3c(C#N)c(N)nn23)c1.Cl [Example 19, 2-amino-7-[3-(2-methyl-1H-imidazol-1-yl)phenyl]pyrazolo-[1,5-a]pyrimidine-3-carbonitrile monohydrochloride] | 50 | active |  |  |  |  | 
2 | Cc1nccn1-c1cccc(-c2ccnc3c(C(=O)c4ccco4)cnn23)c1 [Example 7, 2-furanyl[7-[3-(2-methyl-1H-imidazol-1-yl)phenyl]pyrazolo[1,5-a]pyrimidin-3-yl]methanone compd. with dichloromethane (100:3)] |  | active | 101 | 25 |  |  | 
3 | O=C(c1ccccc1)c1cnn2c(-c3cccc(-n4ccnc4)c3)ccnc12 [Example 4, [7-[3-(1H-imidazol-1-yl)phenyl]pyrazolo[1,5-a]pyrimidin-3-yl]phenylmethanone] |  | inactive | 94 | 100 |  |  | 
4 | O=C(c1ccncc1)c1cnn2c(-c3cccc(-n4ccnc4)c3)ccnc12 [Example 17, [7-[3-(1H-imidazol-1-yl)-phenyl]pyrazolo[1,5-a]pyrimidin-3-yl]-4-pyridinylmethanone] |  | active | 90 |  | inactive |  | 
5 | CCc1nccn1-c1cccc(-c2ccnc3c(C(=O)c4ccccc4)cnn23)c1 [Example 15, [7-[3-(2-ethyl-1H-imidazol-1-yl)-phenyl]pyrazolo[1,5-a]pyrimidin-3-yl]-phenylmethanone] |  | active | 98 |  |  | active | 
6 | O=C(c1cccs1)c1cnn2c(-c3cccc(-n4ccnc4)c3)ccnc12 [Example 11, [7-[3-(1H-imidazol-1-yl)phenyl]pyrazolo[1,5-a]pyrimidin-3-yl]-2-thienyl-methanone] |  | inactive | 100 | 50 |  |  | 
7 | Cc1nccn1-c1cccc(-c2ccnc3c(C(=O)c4cccs4)cnn23)c1 [Example 10, [7-[3-(2-methyl-1H-imidazol-1-yl)-phenyl]pyrazolo[1,5-a]pyrimidin-3-yl]-2-thienyl-methanone] |  | active | 99 | 100 |  |  | 
8 | N#Cc1cnn2c(-c3cccc(-n4ccnc4)c3)ccnc12 [Example 3, 7-[3-(1H-imidazol-1-yl)phenyl]-pyrazolo[1,5-a]pyrimidine-3-carbonitrile] |  | active | 44 | 100 |  |  | 
9 | Cc1cn(-c2cccc(-c3ccnc4c(C(=O)c5cccs5)cnn34)c2)cn1 [Example 8, [7-[3-(4-methyl-1H-imidazol-1-yl)-phenyl]pyrazolo[1,5-a]pyrimidin-3-yl]-2-thienyl-methanone] |  | active | 75 | 75 |  |  | 
10 | Cc1cn(-c2cccc(-c3ccnc4c(C(=O)c5ccco5)cnn34)c2)cn1 [Example 9, 2-furanyl[7-[3-(4-methyl-1H-imidazol-1-yl)phenyl]pyrazolo[1,5-a]pyrimidin-3-yl]methanone compd. with dichloromethane (20:1)] |  | active | 98 | 50 |  |  | 
11 | Cc1cn(-c2cccc(-c3ccnc4c(C(=O)c5ccccc5)cnn34)c2)cn1 [Example 14, [7-[3-(4-methyl-1H-imidazol-1-yl)-phenyl]pyrazolo[1,5-a]pyrimidin-3-yl]-phenylmethanone compd. with dichloromethane (20:1)] |  | active | 93 | 100 |  |  | 
12 | O=C(c1ccco1)c1cnn2c(-c3cccc(-n4ccnc4)c3)ccnc12 [Example 5, 2-furanyl[7-[3-(1H-imidazol-1-yl)-phenyl]-pyrazolo[1,5-a]pyrimidin-3-yl]methanone] |  | active | 72 | 100 |  |  | 
13 | c1cc(-c2ccnc3ccnn23)cc(-n2ccnc2)c1 [Example 6, 7-[3-(1H-imidazol-1-yl)-phenyl]pyrazolo[1,5-a]pyrimidine] |  | inactive | 72 | 0 |  |  | 
14 | Cc1nccn1-c1cccc(-c2ccnc3c(Cl)cnn23)c1 [Example 12, 3-chloro-7-[3-(2-methyl-1H-imidazol-1-yl)phenyl]pyrazolo[1,5-a]pyrimidine compd. with dichloromethane (20:1)] |  | active |  | 100 |  |  | 
15 | CCOC(=O)c1cnn2c(-c3cccc(-n4ccnc4C)c3)ccnc12 [Example 21, ethyl 7-[3-(2-methyl-1H-imidazol-1-yl)phenyl]pyrazolo[1,5-a]pyrimidine-3-carboxylate] |  | inactive |  | 0 |  |  | inactive
16 | Cc1nccn1-c1cccc(-c2ccnc3c(C(=O)c4ccccc4)cnn23)c1 [Example 1, [7-[3-(2-Methyl-1H-imidazol-1-yl)phenyl]pyrazolo[1,5-a]pyrimidin-3-yl]phenylmethanone compound with dichloromethane (20:1;)] |  | active | 98 | 100 |  |  | 
17 | Cc1nccn1-c1cccc(-c2ccnc3ccnn23)c1 [Example 13, 7-[3-(2-methyl-1H-imidazol-1-yl)-phenyl]pyrazolo[1,5-a]pyrimidine] |  | active |  | 50 |  |  | 
18 | Cc1nccn1-c1cccc(-c2ccnc3c(C#N)cnn23)c1 [Example 2, 7-[3-(2-methyl-1H-imidazol-1-yl)-phenyl]pyrazolo[1,5-a]pyrimidine-3-carbonitrile compd. with dichloromethane 20:1] |  | inactive | 88 | 75 |  |  | 
19 | Cc1cn(-c2cccc(-c3ccnc4c(C#N)cnn34)c2)cn1 [Example 20, 7-[3-(4-methyl-1H-imidazol-1-yl)-phenyl]pyrazolo[1,5-a]pyrimidine-3-carbonitrile] |  | inactive |  | 0 |  |  | 
